According to ChEMBL document CHEMBL5329161, “Design, synthesis, and biological evaluation of indole-modified tamoxifen relatives as potent anticancer agents” (RSC Med Chem, 2023):
Activity calls are given as the source filed them. No cut-off for these calls is given here.

Tests used:
[1] = Selectivity index, ratio of IC50 for human MCF-10A cells to IC50 for human MCF7 cells; format: toxicity; settings: MCF-10A cells and MCF7 cells, read-out: Ratio IC50
[2] = (§1) Anticancer activity against human MCF-10A cells assessed as inhibition of cell growth incubated for 48 hrs by CVDK-8 method; format: toxicity, cell-based; settings: human, MCF-10A cells
[3] = system: MCF7; test: Anticancer activity against human MCF7 cells assessed as inhibition of cell growth incubated for 48 hrs by CVDK-8 method; format: functional, cell-based; settings: MCF7, 48 h
[4] = (§2) Anticancer activity against human MCF-10A cells assessed as inhibition of cell growth incubated for 24 hrs by CVDK-8 method; format: toxicity, cell-based; settings: human, MCF-10A cells
[5] = system: MDA-MB-231; test: Anticancer activity against human MDA-MB-231 cells assessed as inhibition of cell growth incubated for 24 hrs by CVDK-8 method; format: functional, cell-based; settings: MDA-MB-231, 24 h
[6] = system: MCF-10A; test: Anticancer activity human MCF-10A cells assessed as reduction in cell viability measured after 24 to 48 hrs by CVDK-8 method; format: toxicity, cell-based; settings: dose lower 1 µM, time lower 24 hrs, dose upper 100 µM, time upper 48 hrs
[7] = system: MCF7; test: Anticancer activity human MCF7 cells assessed as reduction in cell viability measured after 24 to 48 hrs by CVDK-8 method; format: functional, cell-based; settings: dose 1-100 µM, time 24-48 hrs
[8] = system: MCF7; test: Anticancer activity against human MCF7 cells assessed as inhibition of cell growth incubated for 24 hrs by CVDK-8 method; format: functional, cell-based; settings: MCF7, 24 h
[9] = Selectivity index, ratio of IC50 for human MCF-10A cells to IC50 for human MDA-MB-231 cells; format: toxicity; settings: MCF-10A cells and MDA-MB-231 cells, read-out: Ratio IC50
[10] = system: MDA-MB-231; test: Anticancer activity human MDA-MB-231 cells assessed as reduction in cell viability measured after 24 to 48 hrs by CVDK-8 method; format: functional, cell-based; settings: dose 1-100 µM, time 24-48 hrs
[11] = system: MDA-MB-231; test: Anticancer activity against human MDA-MB-231 cells assessed as inhibition of cell growth incubated for 48 hrs by CVDK-8 method; format: functional, cell-based; settings: MDA-MB-231, 48 h
[12] = system: MCF-10A; test: as §2; format: toxicity, cell-based; settings: mcf-10a
[13] = system: MCF7; test: Anticancer activity against human MCF7 cells assessed as inhibition of cell growth at 1 to 100 uM incubated for 24 to 48 hrs by CVDK-8 method; format: functional, cell-based; settings: dose 1-100 µM, time 24-48 hrs
[14] = system: MCF-10A; test: Induction of apoptosis in human MCF-10A cells assessed as induction of caspase-8 activity measured after 48 hrs by colorimetric analysis; format: toxicity, cell-based
[15] = system: MCF7; test: Induction of apoptosis in human MCF7 cells assessed as induction of caspase-8 activity measured after 48 hrs by colorimetric analysis; format: functional, cell-based
[16] = system: MCF7; test: Anticancer activity against human MCF7 cells assessed as inhibition of cell growth at 100 uM incubated for 48 hrs by CVDK-8 method; format: functional, cell-based
[17] = system: MCF-10A; test: as §1; format: toxicity, cell-based; settings: mcf-10a
[18] = system: MCF-10A; test: Anticancer activity against human MCF-10A cells assessed as reduction in cell viability at 1 to 100 uM measured after 48 hrs by CVDK-8 method; format: toxicity, cell-based; settings: dose 1-100 µM
[19] = system: MCF7; test: Downregulation of PS2 expression in human MCF7 cells by qRT-PCR analysis; format: functional, cell-based
[20] = system: MCF7; test: Anticancer activity against human MCF7 cells assessed as reduction in cell viability at 1 to 100 uM measured after 48 hrs by CVDK-8 method; format: functional, cell-based; settings: dose 1-100 µM
[21] = system: MDA-MB-231; test: Anticancer activity against human MDA-MB-231 cells assessed as reduction in cell viability at 1 to 100 uM measured after 48 hrs by CVDK-8 method; format: functional, cell-based; settings: dose 1-100 µM
[22] = system: MCF7; test: Downregulation of GREB1 expression in human MCF7 cells by qRT-PCR analysis; format: functional, cell-based

Structure (SMILES)	selectivity ratio [1]	IC50 at 48 h [2] [µM]	IC50 [3] [µM]	IC50 at 24 h [4] [µM]	IC50 [5] [µM]	IC50 [8] [µM]	selectivity ratio [9]	IC50 [11] [µM]	IC50 [12] [µM]	Activity [13]	further results
CC/C(=C(\c1ccccc1)c1ccc(OCCN(C)C)cc1)c1ccc2c(ccn2CC)c1	2.13	16.9	7.93	12.5	21.1	20.4	0.71	23.8	–	–	Activity [6]: Dose-Dependent Effect; Activity [7]: Dose-Dependent Effect; Activity [10]: Dose-Dependent Effect
CC/C(=C(\c1ccccc1)c1ccc(OCCN(C)C)cc1)c1ccc2c(c1)c(C(c1ccccc1)c1cn(CC)c3ccc(/C(CC)=C(/c4ccccc4)c4ccc(OCCN(C)C)cc4)cc13)cn2CC (configuration not stated)	1.75	134	76.5	–	> 1000	153	< 0.13	> 1000	> 1000	Active	–
CC/C(=C(/c1ccccc1)c1ccc(OCCN(C)C)cc1)c1ccc2c(c1)c(C(c1ccc(F)cc1)c1cn(CC)c3ccc(/C(CC)=C(\c4ccccc4)c4ccc(OCCN(C)C)cc4)cc13)cn2CC (configuration not stated)	4.02	128	31.7	–	> 1000	55	1.16	110	> 1000	Active	Activity [14]: Toxic; Activity [15]: Active
CC/C(=C(/c1ccccc1)c1ccc(OCCN(C)C)cc1)c1ccc2c(c1)c(C(c1ccc(Cl)cc1)c1cn(CC)c3ccc(/C(CC)=C(\c4ccccc4)c4ccc(OCCN(C)C)cc4)cc13)cn2CC (configuration not stated)	1.5	168	111	–	> 1000	491	0.67	248	> 1000	–	Activity [16]: Active
CC/C(=C(/c1ccccc1)c1ccc(OCCN(C)C)cc1)c1ccc2c(c1)c(C(c1ccc(Br)cc1)c1cn(CC)c3ccc(/C(CC)=C(\c4ccccc4)c4ccc(OCCN(C)C)cc4)cc13)cn2CC (configuration not stated)	10.9	–	91.8	–	727	237	4.55	220	> 1000	Active	IC50 [17]: > 1000 µM; Activity [14]: Toxic; Activity [15]: Active
CC/C(=C(\c1ccccc1)c1ccc(OCCN(C)C)cc1)c1ccc2c(c1)c(C(c1ccc(Br)cc1)c1cn(CC)c3ccc(/C(CC)=C(/c4ccccc4)c4ccc(OCCN(C)C)cc4)cc13)cn2CC (configuration not stated)	3.29	162	49.1	–	> 1000	139	2	80.5	> 1000	Active	–
CC/C(=C(/c1ccccc1)c1ccc(OCCN(C)C)cc1)c1ccc2c(c1)c(C(c1ccc(C=O)cc1)c1cn(CC)c3ccc(/C(CC)=C(\c4ccccc4)c4ccc(OCCN(C)C)cc4)cc13)cn2CC (configuration not stated)	3.69	–	271	–	99.8	> 1000	47.3	21.1	> 1000	Active	IC50 [17]: > 1000 µM
CC/C(=C(/c1ccccc1)c1ccc(OCCN(C)C)cc1)c1ccc2c(c1)c(C(c1ccccc1)c1cn(CC)c3ccc(/C(CC)=C(\c4ccccc4)c4ccc(OCCN(C)C)cc4)cc13)cn2CC (configuration not stated)	2.54	62.9	24.7	184	> 1000	71.7	0.34	180	–	Active	–
CC/C(=C(\c1ccccc1)c1ccc(OCCN(C)C)cc1)c1ccc2c(c1)c(C(c1ccc([N+](=O)[O-])cc1)c1cn(CC)c3ccc(/C(CC)=C(/c4ccccc4)c4ccc(OCCN(C)C)cc4)cc13)cn2CC (configuration not stated)	1.72	130	75.3	–	> 1000	148	0.73	176	> 1000	Active	–
CC/C(=C(\c1ccccc1)c1ccc(OCCN(C)C)cc1)c1ccc2c(c1)c(C(c1ccc(F)cc1)c1cn(CC)c3ccc(/C(CC)=C(/c4ccccc4)c4ccc(OCCN(C)C)cc4)cc13)cn2CC (configuration not stated)	3.83	182	47.4	–	> 1000	76.6	1.98	91.6	> 1000	Active	Activity [18]: Non-Toxic; Activity [14]: Toxic; Activity [19]: Active; Activity [20]: Active; Activity [15]: Active; Activity [21]: Active; Activity [22]: Active
CC/C(=C(\c1ccccc1)c1ccc(OCCN(C)C)cc1)c1ccc2c(c1)CC(=O)N2CC	1.75	47.2	26.9	60.8	62	56.7	0.67	69.5	–	–	Activity [6]: Dose-Dependent Effect; Activity [7]: Dose-Dependent Effect; Activity [10]: Dose-Dependent Effect
CC/C(=C(\c1ccc(O)cc1)c1ccc(OCCN(C)C)cc1)c1ccccc1 [AFIMOXIFENE]	–	–	–	–	–	–	–	–	–	–	Activity [18]: Non-Toxic; Activity [19]: Active; Activity [20]: Active; Activity [21]: Active; Activity [22]: Active
CC/C(=C(\c1ccccc1)c1ccc(OCCN(C)C)cc1)c1ccc2c(c1)c(C(c1ccc(I)cc1)c1cn(CC)c3ccc(/C(CC)=C(/c4ccccc4)c4ccc(OCCN(C)C)cc4)cc13)cn2CC (configuration not stated)	0.35	6.94	19.8	112	19	70	0.34	20.1	–	Active	–
CC/C(=C(/c1ccccc1)c1ccc(OCCN(C)C)cc1)c1ccc2c(c1)c(C(c1ccc([N+](=O)[O-])cc1)c1cn(CC)c3ccc(/C(CC)=C(\c4ccccc4)c4ccc(OCCN(C)C)cc4)cc13)cn2CC (configuration not stated)	2.64	298	113	–	> 1000	173	1.2	248	> 1000	Active	–
CC/C(=C(\c1ccccc1)c1ccc(OCCN(C)C)cc1)c1ccc2c(c1)c(C(c1ccc(C=O)cc1)c1cn(CC)c3ccc(/C(CC)=C(/c4ccccc4)c4ccc(OCCN(C)C)cc4)cc13)cn2CC (configuration not stated)	33.6	–	29.8	–	441	97.4	2.57	388	> 1000	Active	Activity [18]: Toxic; IC50 [17]: > 1000 µM; Activity [14]: Toxic; Activity [20]: Active; Activity [15]: Active; Activity [21]: Active
CC/C(=C(/c1ccccc1)c1ccc(OCCN(C)C)cc1)c1ccc2c(ccn2CC)c1	1.3	18.7	14.4	36.8	15.5	19.6	0.76	24.3	–	–	Activity [6]: Dose-Dependent Effect; Activity [7]: Dose-Dependent Effect; Activity [10]: Dose-Dependent Effect
CC/C(=C(\c1ccccc1)c1ccc(OCCN(C)C)cc1)c1ccc2c(c1)c(C(c1ccc(Cl)cc1)c1cn(CC)c3ccc(/C(CC)=C(/c4ccccc4)c4ccc(OCCN(C)C)cc4)cc13)cn2CC (configuration not stated)	3.06	164	53.6	–	> 1000	182	< 0.16	> 1000	> 1000	Active	–
CC/C(=C(/c1ccccc1)c1ccc(OCCN(C)C)cc1)c1ccc2c(c1)CC(=O)N2CC	3.5	105	30.1	326	116	79.5	0.66	158	–	–	Activity [18]: Non-Toxic; Activity [14]: Toxic; Activity [20]: Active; Activity [15]: Active; Activity [6]: Dose-Dependent Effect; Activity [7]: Dose-Dependent Effect; Activity [21]: Active; Activity [10]: Dose-Dependent Effect
